# Laboratory results published in US7655756B2 (Johnson & Johnson Pharmaceutical Research & Development, LLC, priority 2005, dated 2010).
# Key:
# [1] = target: T1, ERRβ (Homo sapiens, UniProt O95718); test: ThermoFluor thermal shift assay, ERRβ; assay type: binding; settings: 100 μM test compound; 0.1 mg/mL protein, 25 mM HEPES pH 8.0; Tm free protein 47.5 °C; read-out: ΔTm, thermal stabilization of ERRβ
# T1 sequence (O95718 208-432 limits assumed): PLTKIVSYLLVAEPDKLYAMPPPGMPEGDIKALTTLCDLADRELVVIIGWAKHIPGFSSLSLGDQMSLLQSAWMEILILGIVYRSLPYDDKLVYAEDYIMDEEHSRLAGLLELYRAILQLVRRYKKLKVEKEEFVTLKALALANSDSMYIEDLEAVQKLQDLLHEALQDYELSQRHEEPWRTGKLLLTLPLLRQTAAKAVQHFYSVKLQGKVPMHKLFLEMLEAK
# [2] = target: T2, ligand binding domain of ERRγ (Homo sapiens, UniProt P62508); test: ThermoFluor thermal shift assay, ERRγ ligand binding domain; settings: 0.1 mg/mL protein, 25 mM HEPES pH 8.0, Tm free protein 49.6 °C
# T2 construct: 6His; made in house; host or cells: E. coli BL21(DE3)
# T2 sequence (P62508 229-458): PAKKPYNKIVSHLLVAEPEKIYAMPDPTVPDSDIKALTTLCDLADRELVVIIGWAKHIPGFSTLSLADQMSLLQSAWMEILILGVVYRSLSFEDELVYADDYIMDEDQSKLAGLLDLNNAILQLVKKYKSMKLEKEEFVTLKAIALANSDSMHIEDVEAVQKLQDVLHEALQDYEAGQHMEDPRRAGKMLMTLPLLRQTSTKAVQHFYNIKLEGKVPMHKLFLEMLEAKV
# Description: The vector was in E. coli BL21(DE3) and cultured in Minimal media (M9) at 37° C. to an OD595 0.6-0.8, followed by induction at 15° C. with 0.4 mM IPTG for 20 hours. The next day, the culture was harvested and lysed in buffer A (Buffer A: 20 mM Tris-HCl, pH 7.5, 0.4 M NaCl and 5 mM Imidazole) using an Emulsiflex-C5 french press (Avestin). Lysates were spun at 40,000×g for 45 minutes to remove insoluble material. The clarified lysate was applied on a Ni-NTA column and eluted with a linear gradient of imidazole. The protein was further purified by applying the eluent on a Superdex 200 HR 10/30 column (Amersham Pharmacia Biotech) equilibrated with Buffer B (Buffer B: 20 mM Tris-HCl pH 7.5, 0.2M NaCl, 1 mM EDTA and 1 mM DTT). […] Fractions were pulled and concentrated to 4 mg/ml and frozen in liquid nitrogen and stored at −80° C.
# The ligand binding domain of ERRγ was screened against a library of known estrogen activators and a generic drug library using ThermoFluor®. ThermoFluor® is a miniaturized thermal shift assay, that has been developed for HTS applications; as a secondary assay for confirmation and characterization of hits; and as a functional assay to characterize orphan proteins. ThermoFluor® exploits the well-described phenomenon of ligand induced stabilization of macromolecules. Ligand binding energy adds directly to the ground state energy of a macromolecule and results in increased thermal stability. The degree of stabilization is proportional to the binding affinity of the ligand for the macromolecule.
# Assay plates were prepared by dispensing 2 μL of a protein-dye solution and 2 μL of the test compound in a 384-well plate. […] Finally 1 μL of mineral oil was dispensed on top to prevent evaporation during the high throughput screen (HTS). ThermoFluor® is an HTS assay that measures protein unfolding based on fluorescence detection of the denatured form of the protein. The reporter for the protein unfolding event is the environmentally sensitive dye ANS that is incorporated in the screening buffer. During a typical experiment the 384-well plate is heated at a ramping rate of 1° C./min and the thermal unfolding of the protein is monitored at 1° C. intervals by measuring fluorescence changes detected through a CCD camera. Captured images are integrated and a melting curve is generated that relates fluorescence to fraction of unfolded protein as a function of temperature. […] Hits were identified from the screen by measuring an increase in the melting temperature of the protein.
# In order to estimate binding affinities, it was taken into account that the oligomeric state of ERRγ which is a dimer (N2), and that of a single ligand (Lf) can interact per monomer subunit with equal affinity. The melting curve for such a system is described by the following three equilibria:
# To compare dissociation constants at a common reference temperature, Tref, the following equation was used: […]
# In the thermodynamic treatment of the data the following assumptions were made: i) the small ligand interacts only with the folded state of the protein, ii) the reactions are reversible; iii) the unfolding protein reaction is a two-state process and iv) ideal dilute solutions are being used (specific activity for protein and ligands is equal to 1).
# [3] = target: T3, ERRγ (Homo sapiens, UniProt P62508); test: Isothermal titration calorimetry; assay type: binding; settings: isothermal titration calorimetry
# T3 construct: 6His; made in house; host or cells: E. coli BL21(DE3)
# T3 sequence (P62508 229-458): T2 sequence (P62508 229-458)
# Description: The heat of interaction of the ligands with ERRγ molecules was measured by using the Omega titration calorimeter from Microcal Inc. In a typical titration, 1.4 mL of a 20 μM protein solution is titrated with a ligand solution of ˜0.4 mM concentration using a 100 μL syringe by ˜20 injections of 5-6 μL each. This syringe is also used to mix the reactants completely in the sample cell by rotating it at 400 rpm. For each injection, the area under the resulting peak is proportional to the heat of interaction, Q. Once this heat is corrected for the titrant dilution and normalized by the titrant solution concentration it becomes equal to the binding enthalpy, ΔHb, under nonsaturating conditions. The precision of the heat of each injection is about 0.5 μcal. One method of determining ΔHb is to average several intermediate peaks from the different sites. In addition to the binding enthalpies, one can obtain binding affinities, and overall stoichiometries of the complexes. The experimental calorimetric binding isotherm is the dependence of the total heat, Qr, (or dQrldX T) on the total concentration of ligand added, Xr. The above three parameters for each type of site are determined iteratively using the Marquardt algorithms as described previously.
# [4] = target: T4, ERRγ-SRC2 complex (Homo sapiens, UniProt P62508); test: TR-FRET co-activator recruitment assay; assay type: biochemical; settings: for Displacement of co-activator peptide from ERRγ (antagonism), in words: 6 nM ERRγ LBD, 6 nM GST-SRC-2 peptide
# T4 construct: made in house; host or cells: E. coli BL21(DE3) (ERRγ LBD)
# T4 sequence (P62508 229-458): T2 sequence (P62508 229-458)
# Description: For FRET measurements, the reaction was buffered in 25 mM Tris pH 8, 2.5 mM Hepes, 20 mM KCl, 1 mM DTT, and 0.05 mg/mL delipidated BSA.
# Time-resolved Fluorescence resonance energy transfer (FRET) experiments were performed to examine the functional response of ERRγ ligands.
# For FRET measurements, the reaction was buffered in 25 mM Tris pH 8, 2.5 mM Hepes, 20 mM KCl, 1 mM DTT, and 0.05 mg/mL BSA (-lipids). […] Reactions were allowed to reach equilibrium at 25° C. for 4-18 hours before collecting data on the Analyst from LJL Biosystems (Molecular Devices Sunnyvale, Calif.). […] Dose response curves were fitted using a hyperbolic equation and the data reported is the average of three independent experiments.
smiles,measurement,setting,value
"Cc1cc(O)ccc1Cl [ClCH3Ph, 4-chloro, 3-methyl phenol]",ΔTm at 100 µM,[1],0.2 °C
same,"ΔTm, thermal stabilization of ERRγ",[2]; 100 μM test compound,3.9 °C
same,ΔTm at 100 µM,"[2]; pH 8, read-out: ΔTm, thermal stabilization of ERRγ, 100 μM test compound",4 to 5.7 °C
same,Binding enthalpy ΔHb,[3],~-21 kcal/mol
same,"Enhancement in the affinity of the receptor for co-activator peptide fragments, in words",[4],not able to demonstrate
same,"Displacement of co-activator peptide from ERRγ (antagonism), in words",[4],neither ligand displaced co-activator peptide
same,"Displacement of co-activator peptide from ERRγ (antagonism), in words",[4]; listed as ClCh3PH,ineffective
